Assay results from ChEMBL document CHEMBL1201862, “PubChem BioAssay data set” (2004).
Each block holds one molecule with its values, some of them ahead of it. Calls of active or inactive are those of the source.

What was measured:
[1] = molecular target: T1, Endoribonuclease toxin MazF (Escherichia coli K-12, UniProt P0AE70); test: MazF toxin RNase activators, dose response, biochemical, fluorescence, single-stranded RNA substrate, uHTS hits (AID 588481); type: functional
[2] = molecular target: T1, Endoribonuclease toxin MazF; test: fluorescent RNA oligo signal without MazF, dose response, counter-screen for MazEF activator project, biochemical, fluorescence, single-stranded RNase substrate (AID 588502); type: functional
[3] = system: CHO; test: cytotoxicity in TLR9-MyD88 CHO cells, dose response, cytotoxicity control for TLR9-MyD88 binding inhibitor project, cell-based, luminescence (AID 588339); type: functional, hamster; conditions: Cricetulus griseus;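 also: CHO cells stably coexpressing TLR9 and MyD88 fusions from primary screen; compound exposure lasted 48 hours before viability readout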
[4] = molecular target: Beta Lactamase (Pseudomonas aeruginosa, UniProt Q932Y6); test: beta-lactamase reporter inhibitor potency, dose response, artefact control for TLR9-MyD88 binding inhibitor project, BLA reporter cells, FRET fluorescence (AID 588341); type: cell-based;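 also: cell based assay in CHO-K1 cells stably expressing beta-lactamase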
Beta Lactamase, sequence (Q932Y6 whole entry): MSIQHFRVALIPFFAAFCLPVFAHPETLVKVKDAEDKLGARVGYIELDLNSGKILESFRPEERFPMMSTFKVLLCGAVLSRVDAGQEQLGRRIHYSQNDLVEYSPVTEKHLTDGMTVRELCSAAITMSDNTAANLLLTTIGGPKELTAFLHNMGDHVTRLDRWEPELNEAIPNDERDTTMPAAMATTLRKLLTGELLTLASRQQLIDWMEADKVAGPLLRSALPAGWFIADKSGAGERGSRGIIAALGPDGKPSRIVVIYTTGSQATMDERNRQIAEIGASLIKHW

[5] = molecular target: T2, Protein Tat (Human immunodeficiency virus type 1 group M subtype B (isolate HXB2)(HIV-1), UniProt P04608); type: functional;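 also: tat binding to TAR RNA read out by fluorescence polarization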
T2 sequence (P04608 whole entry): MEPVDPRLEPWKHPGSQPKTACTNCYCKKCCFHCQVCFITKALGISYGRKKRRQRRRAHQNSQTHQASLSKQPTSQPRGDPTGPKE

[6] = THP-1 cell cytotoxicity, dose response, cytotoxicity control for Vif-APOBEC3G degradation inhibitor project, THP-1 cells (AID 1117359); type: functional; conditions: Human immunodeficiency virus 1, THP-1
[7] = molecular target: T3, Caspase-3 (Homo sapiens, UniProt P42574); type: functional
T3 sequence (P42574 whole entry): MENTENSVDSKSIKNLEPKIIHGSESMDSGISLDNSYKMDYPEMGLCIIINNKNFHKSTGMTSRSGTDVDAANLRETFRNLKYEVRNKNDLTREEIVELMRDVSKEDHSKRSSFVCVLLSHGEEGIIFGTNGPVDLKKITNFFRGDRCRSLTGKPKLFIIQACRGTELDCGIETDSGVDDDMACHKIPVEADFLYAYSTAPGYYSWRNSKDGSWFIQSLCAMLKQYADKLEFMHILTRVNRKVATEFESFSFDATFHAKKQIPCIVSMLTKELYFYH

[8] = molecular target: T4, Sentrin-specific protease 7 (Homo sapiens, UniProt Q9BQF6); type: functional;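 also: Luminescence-based dose-response confirmation of ultra-high-throughput screening hits, measuring inhibition of SENP7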
T4 sequence (Q9BQF6 whole entry): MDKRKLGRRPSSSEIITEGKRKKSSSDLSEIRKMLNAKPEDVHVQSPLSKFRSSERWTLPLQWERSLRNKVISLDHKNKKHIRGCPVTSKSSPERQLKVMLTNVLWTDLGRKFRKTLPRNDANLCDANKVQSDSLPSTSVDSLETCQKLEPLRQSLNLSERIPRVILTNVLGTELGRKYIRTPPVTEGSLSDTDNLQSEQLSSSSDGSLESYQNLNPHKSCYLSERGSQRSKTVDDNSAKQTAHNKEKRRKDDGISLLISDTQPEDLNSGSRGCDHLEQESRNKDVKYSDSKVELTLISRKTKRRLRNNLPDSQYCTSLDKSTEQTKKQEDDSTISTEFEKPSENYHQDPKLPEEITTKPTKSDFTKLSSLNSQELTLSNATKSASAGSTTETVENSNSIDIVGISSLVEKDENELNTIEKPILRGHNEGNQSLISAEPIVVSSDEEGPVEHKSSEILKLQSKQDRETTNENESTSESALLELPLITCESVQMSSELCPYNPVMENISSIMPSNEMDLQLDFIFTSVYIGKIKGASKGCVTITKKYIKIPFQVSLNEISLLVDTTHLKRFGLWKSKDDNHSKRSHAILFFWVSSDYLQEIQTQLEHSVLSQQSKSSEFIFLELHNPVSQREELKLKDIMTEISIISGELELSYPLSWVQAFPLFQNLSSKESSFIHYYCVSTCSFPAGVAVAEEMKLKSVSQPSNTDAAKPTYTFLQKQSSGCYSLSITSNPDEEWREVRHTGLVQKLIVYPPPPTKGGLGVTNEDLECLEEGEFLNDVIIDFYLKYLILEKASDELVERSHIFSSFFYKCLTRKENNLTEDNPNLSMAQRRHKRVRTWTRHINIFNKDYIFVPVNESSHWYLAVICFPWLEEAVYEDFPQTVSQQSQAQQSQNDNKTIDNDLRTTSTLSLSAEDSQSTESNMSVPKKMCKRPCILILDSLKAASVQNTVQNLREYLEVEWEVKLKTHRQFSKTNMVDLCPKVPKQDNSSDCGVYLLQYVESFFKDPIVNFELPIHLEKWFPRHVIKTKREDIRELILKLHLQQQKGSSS

[9] = molecular target: T5, Sentrin-specific protease 6 (Homo sapiens, UniProt Q9GZR1); type: functional
T5 sequence (Q9GZR1 whole entry): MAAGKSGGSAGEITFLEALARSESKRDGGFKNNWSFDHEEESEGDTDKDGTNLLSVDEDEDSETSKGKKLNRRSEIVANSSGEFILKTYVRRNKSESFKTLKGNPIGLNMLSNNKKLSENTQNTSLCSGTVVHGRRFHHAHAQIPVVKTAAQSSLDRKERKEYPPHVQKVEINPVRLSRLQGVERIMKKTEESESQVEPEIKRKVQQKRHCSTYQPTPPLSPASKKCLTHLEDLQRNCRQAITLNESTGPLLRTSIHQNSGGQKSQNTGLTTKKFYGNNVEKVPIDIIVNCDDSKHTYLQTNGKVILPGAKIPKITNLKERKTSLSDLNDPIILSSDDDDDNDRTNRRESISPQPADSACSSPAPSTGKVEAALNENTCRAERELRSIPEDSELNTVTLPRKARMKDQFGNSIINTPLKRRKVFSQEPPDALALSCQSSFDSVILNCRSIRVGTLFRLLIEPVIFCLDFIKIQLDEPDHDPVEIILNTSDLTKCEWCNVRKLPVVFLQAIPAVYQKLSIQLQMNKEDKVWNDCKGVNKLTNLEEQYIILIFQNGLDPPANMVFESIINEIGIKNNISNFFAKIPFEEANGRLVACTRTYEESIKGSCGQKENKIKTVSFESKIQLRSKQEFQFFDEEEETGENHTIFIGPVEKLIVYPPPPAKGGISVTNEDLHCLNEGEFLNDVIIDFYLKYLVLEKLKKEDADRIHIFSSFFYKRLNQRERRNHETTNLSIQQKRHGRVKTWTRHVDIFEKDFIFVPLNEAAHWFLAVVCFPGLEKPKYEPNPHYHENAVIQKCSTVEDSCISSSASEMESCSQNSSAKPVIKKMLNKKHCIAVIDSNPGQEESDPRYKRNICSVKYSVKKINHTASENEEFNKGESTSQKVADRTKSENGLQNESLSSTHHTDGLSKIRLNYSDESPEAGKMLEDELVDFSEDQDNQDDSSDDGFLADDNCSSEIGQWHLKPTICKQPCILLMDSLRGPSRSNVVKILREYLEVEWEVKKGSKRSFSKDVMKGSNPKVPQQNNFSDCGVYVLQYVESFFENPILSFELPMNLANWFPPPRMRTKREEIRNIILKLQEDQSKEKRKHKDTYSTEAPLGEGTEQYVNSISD

[10] = molecular target: T6, Sentrin-specific protease 8 (Homo sapiens, UniProt Q96LD8); type: functional;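 also: luminescence read-out of SENP8 inhibition, dose-response confirmation following an ultra-high-throughput screen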
T6 sequence (Q96LD8 whole entry): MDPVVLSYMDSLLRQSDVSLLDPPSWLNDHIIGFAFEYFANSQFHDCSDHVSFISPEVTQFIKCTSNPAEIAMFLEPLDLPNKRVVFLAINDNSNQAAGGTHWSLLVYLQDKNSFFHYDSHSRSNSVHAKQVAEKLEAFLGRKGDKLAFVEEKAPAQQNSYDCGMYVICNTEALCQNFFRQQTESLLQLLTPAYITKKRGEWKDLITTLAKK

[11] = molecular target: Cytochrome P450 2C19 (Homo sapiens, UniProt P33261); test: Cytochrome panel assay with activity outcomes. Panel member name: p450-cyp2c19 Compounds with AC50 equal or less than 10 uM are considered active; type: functional; conditions: read-out: AC50
Cytochrome P450 2C19, sequence (P33261 whole entry): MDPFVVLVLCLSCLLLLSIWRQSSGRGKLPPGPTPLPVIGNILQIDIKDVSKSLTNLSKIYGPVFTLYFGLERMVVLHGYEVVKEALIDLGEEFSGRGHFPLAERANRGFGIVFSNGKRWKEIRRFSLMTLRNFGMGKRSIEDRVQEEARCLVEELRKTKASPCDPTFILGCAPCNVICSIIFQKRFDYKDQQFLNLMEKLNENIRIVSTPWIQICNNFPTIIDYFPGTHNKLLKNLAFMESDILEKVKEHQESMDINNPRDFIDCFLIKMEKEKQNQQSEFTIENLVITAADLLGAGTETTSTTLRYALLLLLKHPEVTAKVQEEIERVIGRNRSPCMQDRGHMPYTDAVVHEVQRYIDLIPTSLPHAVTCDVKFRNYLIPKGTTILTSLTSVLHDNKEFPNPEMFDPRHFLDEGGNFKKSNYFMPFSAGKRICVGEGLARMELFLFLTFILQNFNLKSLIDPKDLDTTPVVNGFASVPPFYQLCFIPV

[12] = molecular target: T6, Sentrin-specific protease 8; test: SENP8 protease inhibitors, SAR follow-up, biochemical, luminescence (AID 504501); type: functional
[13] = molecular target: T3, Caspase-3; test: SAR Analysis of small molecule inhibitors of Sentrin-specific proteases (SENPs) using a Caspase-3 Selectivity assay. [Related pubchem assays (depositor defined):AID2540, AID2599, AID434973, AID489001]; type: functional
[14] = molecular target: T5, Sentrin-specific protease 6; test: SAR Analysis of small molecule inhibitors of Sentrin-specific protease 6 (SENP6) using a Luminescent assay. [Related pubchem assays (depositor defined):AID2582, AID2599]; type: functional
[15] = molecular target: T4, Sentrin-specific protease 7; test: SENP7 protease inhibitors, SAR follow-up, biochemical, luminescence (AID 504497); type: functional
[16] = molecular target: Cytochrome P450 2D6 (Homo sapiens, UniProt P10635);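 also: CYP2D6 member of a cytochrome P450 panel assay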
Cytochrome P450 2D6, sequence (P10635 whole entry): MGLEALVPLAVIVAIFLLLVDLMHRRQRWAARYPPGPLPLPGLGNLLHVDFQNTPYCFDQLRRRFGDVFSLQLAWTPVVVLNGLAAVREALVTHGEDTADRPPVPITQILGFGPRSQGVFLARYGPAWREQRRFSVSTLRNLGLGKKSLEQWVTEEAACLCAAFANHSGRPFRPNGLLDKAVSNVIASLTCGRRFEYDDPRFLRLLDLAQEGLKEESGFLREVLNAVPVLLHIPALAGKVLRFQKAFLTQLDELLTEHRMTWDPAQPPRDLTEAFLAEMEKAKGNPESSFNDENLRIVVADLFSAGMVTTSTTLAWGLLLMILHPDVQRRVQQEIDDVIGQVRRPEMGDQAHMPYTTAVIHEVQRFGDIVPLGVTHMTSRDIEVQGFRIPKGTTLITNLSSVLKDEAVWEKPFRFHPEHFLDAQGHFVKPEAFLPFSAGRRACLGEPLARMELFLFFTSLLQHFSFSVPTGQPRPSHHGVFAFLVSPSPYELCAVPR

[17] = molecular target: Cytochrome P450 2C9 (Homo sapiens, UniProt P11712)
Cytochrome P450 2C9, sequence (P11712 whole entry): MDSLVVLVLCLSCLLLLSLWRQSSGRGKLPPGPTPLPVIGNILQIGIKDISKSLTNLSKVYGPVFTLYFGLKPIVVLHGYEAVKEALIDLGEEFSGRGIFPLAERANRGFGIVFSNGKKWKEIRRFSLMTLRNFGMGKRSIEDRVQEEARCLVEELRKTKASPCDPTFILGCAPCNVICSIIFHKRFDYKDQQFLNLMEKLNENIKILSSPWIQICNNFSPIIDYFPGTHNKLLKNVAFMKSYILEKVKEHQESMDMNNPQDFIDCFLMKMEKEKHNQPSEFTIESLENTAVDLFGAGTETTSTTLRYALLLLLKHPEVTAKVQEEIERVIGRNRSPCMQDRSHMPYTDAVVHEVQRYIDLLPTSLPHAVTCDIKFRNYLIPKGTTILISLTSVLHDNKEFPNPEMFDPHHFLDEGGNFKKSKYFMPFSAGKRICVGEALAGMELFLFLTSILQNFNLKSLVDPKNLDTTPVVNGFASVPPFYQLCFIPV

[18] = molecular target: T7, Mannose-6-phosphate isomerase (Homo sapiens, UniProt P34949); test: inhibitors of human PMI, primary screen, biochemical, fluorescence intensity, coupled assay (AID 1209)
T7 sequence (P34949 whole entry): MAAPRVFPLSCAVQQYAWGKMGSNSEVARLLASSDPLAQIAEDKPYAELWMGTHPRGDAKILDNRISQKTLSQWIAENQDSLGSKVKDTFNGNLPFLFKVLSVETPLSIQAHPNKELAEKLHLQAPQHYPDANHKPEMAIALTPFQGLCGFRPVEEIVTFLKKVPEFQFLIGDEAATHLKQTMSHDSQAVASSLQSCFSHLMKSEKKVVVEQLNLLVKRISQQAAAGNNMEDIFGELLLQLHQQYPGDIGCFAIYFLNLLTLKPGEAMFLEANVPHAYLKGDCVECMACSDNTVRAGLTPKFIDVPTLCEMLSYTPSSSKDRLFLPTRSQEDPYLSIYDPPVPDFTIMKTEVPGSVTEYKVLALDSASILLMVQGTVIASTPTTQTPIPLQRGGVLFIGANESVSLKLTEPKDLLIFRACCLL

[19] = molecular target: T8, Apoptotic protease-activating factor 1 (Homo sapiens, UniProt O14727); type: functional
T8 sequence (O14727 whole entry): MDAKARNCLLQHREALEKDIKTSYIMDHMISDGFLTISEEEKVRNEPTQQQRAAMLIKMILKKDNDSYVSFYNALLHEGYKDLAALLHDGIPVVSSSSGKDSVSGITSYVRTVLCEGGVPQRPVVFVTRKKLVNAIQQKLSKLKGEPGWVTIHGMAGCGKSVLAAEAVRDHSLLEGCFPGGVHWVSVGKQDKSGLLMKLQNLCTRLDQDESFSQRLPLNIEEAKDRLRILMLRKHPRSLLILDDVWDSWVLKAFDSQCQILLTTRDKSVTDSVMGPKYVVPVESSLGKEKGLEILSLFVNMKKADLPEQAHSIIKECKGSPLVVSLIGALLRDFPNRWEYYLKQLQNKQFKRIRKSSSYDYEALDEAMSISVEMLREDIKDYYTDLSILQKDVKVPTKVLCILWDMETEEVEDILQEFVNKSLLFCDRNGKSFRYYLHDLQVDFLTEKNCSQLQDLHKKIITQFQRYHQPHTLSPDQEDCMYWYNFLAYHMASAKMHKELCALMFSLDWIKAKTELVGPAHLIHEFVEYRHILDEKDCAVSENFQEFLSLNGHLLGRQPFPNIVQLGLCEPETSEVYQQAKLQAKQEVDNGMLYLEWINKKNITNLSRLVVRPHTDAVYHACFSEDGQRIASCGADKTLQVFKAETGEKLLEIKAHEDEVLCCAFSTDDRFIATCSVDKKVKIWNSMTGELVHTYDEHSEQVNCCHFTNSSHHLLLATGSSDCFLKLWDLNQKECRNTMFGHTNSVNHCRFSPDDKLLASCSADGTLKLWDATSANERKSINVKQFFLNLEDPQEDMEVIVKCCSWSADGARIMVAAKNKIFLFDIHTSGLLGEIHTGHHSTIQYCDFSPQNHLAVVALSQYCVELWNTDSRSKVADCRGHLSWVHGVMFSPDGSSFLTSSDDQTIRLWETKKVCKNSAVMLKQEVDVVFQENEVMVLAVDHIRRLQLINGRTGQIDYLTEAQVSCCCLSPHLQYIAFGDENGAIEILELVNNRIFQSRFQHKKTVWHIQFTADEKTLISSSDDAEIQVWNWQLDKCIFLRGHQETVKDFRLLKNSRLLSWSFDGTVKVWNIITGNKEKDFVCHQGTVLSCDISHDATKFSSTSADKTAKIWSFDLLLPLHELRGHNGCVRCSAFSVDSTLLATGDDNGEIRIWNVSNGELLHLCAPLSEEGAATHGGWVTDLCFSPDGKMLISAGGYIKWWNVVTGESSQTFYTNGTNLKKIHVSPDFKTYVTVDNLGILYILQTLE

T1 sequence (P0AE70 whole entry): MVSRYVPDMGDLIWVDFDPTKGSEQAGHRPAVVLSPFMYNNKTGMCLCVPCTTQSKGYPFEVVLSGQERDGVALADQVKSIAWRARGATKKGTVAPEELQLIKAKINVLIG

Structure (SMILES): CCCn1c(-c2cccs2)nc2c1c(=O)[nH]c(=O)n2Cc1ccccc1
- EC50 [1]: > 99 µM (inactive)
- EC50 [2]: > 99 µM (inactive)

Structure (SMILES): N#Cc1ccc(-c2ccco2)nc1SCC(=O)c1ccc(Cl)cc1
- IC50 [3]: 16.7 µM (inactive)
- IC50 [4]: 10.1 µM (inactive)
- IC50 [5]: > 100 µM (active)
- CC50 [6]: > 40 µM (active)

- IC50 [7]: > 100 µM (inactive)
- IC50 [8]: > 100 µM (inactive)
- IC50 [9]: > 100 µM (inactive)
- AC50 [11]: 25.1 µM (inconclusive)
- IC50 [13]: 2 µM (active)
- IC50 [14]: 2 µM (active)
- IC50 [15]: 1.7 µM (active)
- AC50 [16]: 25.1 µM (inconclusive)
- AC50 [17]: 10 µM (inconclusive)
Structure (SMILES): Cc1ccc(/C=C/c2nnc(-c3cccs3)o2)cc1
- IC50 [10]: 24.3 µM (active)
- IC50 [12]: 2.1 µM (active)

- IC50 [18]: > 50 µM (not active)
- IC50 [19]: 39.2 µM (active)
Structure (SMILES): O=C(N/N=C/c1ccc(-c2ccccc2[N+](=O)[O-])o1)c1cccnc1
